This is an account of results in article PMC10489938, “Developing an Amide-Spacered Triterpenoid Rhodamine Hybrid of Nano-Molar Cytotoxicity Combined with Excellent Tumor Cell/Non-Tumor Cell Selectivity” (Molecules, 2023).

Data set [1] has as its system human tumor cell lines and non-malignant fibroblasts (NIH 3T3). In words: SRB cytotoxicity assay, several cell lines stated together. Type of data set: cell-based. To be noted: all human tumor cell lines and non-malignant fibroblasts (NIH 3T3), limits of the assay. How it is done: (§1) Sulforhodamine (SRB) assays were performed to evaluate the cytotoxicity of the compounds. First, the cytotoxicity of the different rhodamines was determined; the results of these assays are compiled in Table 1 and Table 2 and depicted in Figure 1.
(§2) Experimental equipment: as previously described biological assays were performed as previously reported employing cell lines obtained from the Department of Oncology [Martin-Luther-University Halle Wittenberg; they were bought from ATCC [2, 4, 7]]. Rhodamine 101 B, as well as asiatic acid, were obtained from local vendors and used as received.
(§3) For the SRB assay and staining experiments: as previously described.
On the technique in general: The SRB assay estimates cell density from bound dye.

For data set [2], the system named is MCF7 (breast adenocarcinoma). In words: SRB cytotoxicity assay, MCF7. It counts as cell-based, human. Particulars: read-out: Cytotoxicity (EC50) MCF7. How it is done: as §1, §2, §3
The test system of data set [3] is A2780 (ovarian carcinoma). In words: SRB cytotoxicity assay, A2780. It counts as cell-based, human. To be noted: read-out: Cytotoxicity (EC50) A2780. How it is done:
as §1, §2, §3

The subject of data set [4] is HeLa (cervical adenocarcinoma). In words: SRB cytotoxicity assay, HeLa. To be noted: read-out: Cytotoxicity (EC50) HeLa. It counts as cell-based, human. How it is done:
as §1, §2, §3

The subject of data set [5] is A375 (melanoma). The experiment in a line: SRB cytotoxicity assay, A375. It counts as cell-based, human. To be noted: read-out: Cytotoxicity (EC50) A375. How it is done:
as §1, §2, §3

The nature of data set [6]: SRB cytotoxicity assay, NIH 3T3. Type of data set: cell-based, murine. Particulars: mouse, NIH 3T3 non-malignant fibroblasts, Table 1, 72 h of treatment, cut-off 30 μM. How it is done: as §1, §2, §3
Data set [7] concerns HT29 (colorectal carcinoma). In words: SRB cytotoxicity assay, HT29. It counts as cell-based, human. Particulars: read-out: Cytotoxicity (EC50) HT29. On the procedure: as §1, §2, §3
Data set [8] has as its system NIH 3T3 (non-malignant fibroblasts, murine). The experiment in a line: SRB cytotoxicity assay, NIH 3T3. Type of data set: cell-based. Particulars: Table 1, 72 h of treatment, cut-off 30 μM. How it is done:
as §1, §2, §3

[9] abbreviates: Table 1, SRB assay, 72 h of treatment, cut-off 30 μM.

Counter-ions that a name gives are not always drawn. Like-named read-outs stand apart in the source and are kept apart here.

`CC(=O)OC[C@@]1(C)C2CC[C@]3(C)[C@H](CC=C4[C@@H]5[C@@H](C)[C@H](C)CC[C@]5(C(=O)N5CCCN(C(=O)c6ccccc6C6=c7cc8c9c(c7Oc7c6cc6c%10c7CCCN%10CCC6)CCC[N+]=9CCC8)CC5)CC[C@]43C)[C@@]2(C)C[C@@H](OC(C)=O)[C@@H]1OC(C)=O` (stereo partly shown) (as salt: chloride) [compound 15] displayed a melting point of 287 to 289 °C.
`CC(=O)OC[C@@]1(C)C2CC[C@]3(C)[C@H](CC=C4[C@@H]5[C@@H](C)[C@H](C)CC[C@]5(C(=O)N5CCCN(C(=O)c6ccccc6-c6c7ccc(=[N+](C)C)cc-7oc7cc(N(C)C)ccc67)CCC5)CC[C@]43C)[C@@]2(C)C[C@@H](OC(C)=O)[C@@H]1OC(C)=O` (stereo partly drawn) (as salt: chloride) [compound 16, (2α,3β,4α)-9-[2-[{4-(2α,3β,23-Tris(Acetyloxy)-urs-12-en-28-oyl)-1,5-Diazocan-1-Yl]Carbonyl}Phenyl]-3,6-Bis(Dimethylamino)-Xanthylium Chloride] yielded a melting point of 224 to 226 °C.
Same read-out and setting: with `CCN(CC)c1ccc2c(-c3ccccc3C(=O)N3CCCN(C(=O)[C@]45CC[C@@H](C)[C@H](C)[C@H]4C4=CC[C@@H]6[C@@]7(C)C[C@@H](OC(C)=O)[C@H](OC(C)=O)[C@@](C)(COC(C)=O)C7CC[C@@]6(C)[C@]4(C)CC5)CCC3)c3ccc(=[N+](CC)CC)cc-3oc2c1` (stereo partly drawn) (as salt: chloride) [compound 17, (2α,3β,4α)-9-[2-[{4-(2α,3β,23-Tris(Acetyloxy)-urs-12-en-28-oyl)-1,5-Diazocan-1-Yl]Carbonyl}Phenyl]-3,6-Bis(Diethylamino)-Xanthylium Chloride] the figure was 222 to 227 °C.
With `CCCN(CCC)c1ccc2c(-c3ccccc3C(=O)N3CCCN(C(=O)[C@]45CC[C@@H](C)[C@H](C)[C@H]4C4=CC[C@@H]6[C@@]7(C)C[C@@H](OC(C)=O)[C@H](OC(C)=O)[C@@](C)(COC(C)=O)C7CC[C@@]6(C)[C@]4(C)CC5)CCC3)c3ccc(=[N+](CCC)CCC)cc-3oc2c1` (stereo partly drawn) (as salt: chloride) [compound 18, (2α,3β,4α)-9-[2-[{4-(2α,3β,23-Tris(Acetyloxy)-urs-12-en-28-oyl)-1,5-Diazocan-1-Yl]Carbonyl}Phenyl]-3,6-Bis(Dipropylamino)-Xanthylium Chloride], the melting point fell in the range of 207 to 209 °C.
Still for that read-out and setting: the result for `CCCCN(CCCC)c1ccc2c(-c3ccccc3C(=O)N3CCCN(C(=O)[C@]45CC[C@@H](C)[C@H](C)[C@H]4C4=CC[C@@H]6[C@@]7(C)C[C@@H](OC(C)=O)[C@H](OC(C)=O)[C@@](C)(COC(C)=O)C7CC[C@@]6(C)[C@]4(C)CC5)CCC3)c3ccc(=[N+](CCCC)CCCC)cc-3oc2c1` (stereo partly drawn) (as salt: chloride) [compound 19, (2α,3β,4α)-9-[2-[{4-(2α,3β,23-Tris(Acetyloxy)-urs-12-en-28-oyl)-1,5-Diazocan-1-Yl]Carbonyl}Phenyl]-3,6-Bis(Dibutylamino)-Xanthylium Chloride] reads 215 to 218 °C.
As for `CN(C)c1ccc2c(-c3ccccc3C(=O)O)c3ccc(=[N+](C)C)cc-3oc2c1` [Rh1, reference compound], the EC50 in data set [1] (NIH3T3) is more than 30 µM; in [2] (Homo sapiens, MCF7, 72 h), more than 30 µM; in [3] (Homo sapiens, A2780, 72 h), more than 30 µM; in data set [4] (Homo sapiens, HeLa, 72 h) it was more than 30 µM; in data set [5] (Homo sapiens, A-375, 72 h), more than 30 µM; in [7] (Homo sapiens, HT-29, 72 h), more than 30 µM. The compound further registered an EC50 at 72 h in data set [6] of more than 30 µM.
Take rhodamine B [Rh2, reference compound]: the EC50 in data set [1], in data set [2] (setting [9]), in data set [3] (setting [9]), in data set [4] (setting [9]), in data set [5] (setting [9]) and in [8] was more than 30 µM in each case. Besides, in data set [7] (setting [9]), the 50% effective concentration (EC50) is more than 30 µM.

For orientation: melting point means the temperature of the solid-liquid transition. What is called EC50 is the midpoint of the concentration-response curve.
